Key:
[1] = system: Aspergillus niger (ATCC 16404); assay: antimicrobial preservative effectiveness test in analogy to USP 32 <51>; format: cell-based; settings: A. niger; for cfu/mL 0 h: 0 h after inoculation; for cfu/mL 0 h / cfu/mL 24 h / cfu/mL 48 h: approx. 22.5° C.
Method: (§1) An antimicrobial preservative effectiveness test in analogy to that of USP 32 <51>was carried out. Sample vials prepared according to Examples 1, 3 and 4 were inoculated with Escherichia coli, Pseudomonas aeruginosa, Staphylococcus aureus, Candida albicans and Aspergillus niger and incubated at approx. 22.5° C. Commercially obtained samples of Disoprivan® were tested as comparators. […]

[2] = system: Escherichia coli (ATCC 8739); assay: as above; format: cell-based; settings: E. coli; for cfu/mL 0 h: 0 h after inoculation; for cfu/mL 0 h / cfu/mL 24 h / cfu/mL 48 h: approx. 22.5° C.
Method: as §1

[3] = miscibility of propofol with semifluorinated alkanes; format: physicochemical; settings: over a wide temperature range
From the text: By virtue of the high solubility of propofol in semifluorinated alkanes, it is now possible to provide injectable propofol formulations having a high strength (or concentration of propofol), and thus require only a low volume of administration. This will also bring about an improved tolerability, since a lower administration volume inherently means a lower intake of excipients (such as emulsifiers).

[4] = system: Pseudomonas aeruginosa (ATCC 9027); assay: antimicrobial preservative effectiveness test in analogy to USP 32 <51>; format: cell-based; settings: P. aeruginosa; for cfu/mL 0 h: 0 h after inoculation; for cfu/mL 0 h / cfu/mL 24 h / cfu/mL 48 h: approx. 22.5° C.
Method: (§2) An antimicrobial preservative effectiveness test in analogy to that of USP 32 <51>was carried out. Sample vials prepared according to Examples 1, 3 and 4 were inoculated with Escherichia coli, Pseudomonas aeruginosa, Staphylococcus aureus, Candida albicans and Aspergillus niger and incubated at approx. 22.5° C. Commercially obtained samples of Disoprivan® were tested as comparators.
(§3) To determine whether the observed inhibition of microbial growth in the emulsions of the invention is an effect of the semifluorinated alkanes or the propofol, the test was repeated with a placebo emulsion containing no propofol, but only F6H8 in a higher concentration (40 wt.-%) and S75 in dextrose solution. Also tested were pure solutions of F6H8 and F4H5.

[5] = system: Staphylococcus aureus (ATCC 6538); assay: as above; format: cell-based; settings: S. aureus; for cfu/mL 0 h: 0 h after inoculation; for cfu/mL 0 h / cfu/mL 24 h / cfu/mL 48 h: approx. 22.5° C.
Method: as §2, §3

[6] = system: Candida albicans (ATCC 10231); assay: as above; format: cell-based; settings: C. albicans; for cfu/mL 0 h: 0 h after inoculation; for cfu/mL 0 h / cfu/mL 24 h / cfu/mL 48 h: approx. 22.5° C.
Method: as §2, §3

[7] = hydroxyl group; cited from earlier work

## CCCCCC(F)(F)C(F)(F)C(F)(F)C(F)(F)F [Example F4H5]
[1]
  cfu/mL 0 h: 3 000 cfu/mL
  Change in log steps 24 h: ≤-1.4 log steps
  cfu/mL 24 h: <100 cfu/mL
  Change in log steps 48 h: ≤-1.2 log steps
  cfu/mL 48 h: <100 cfu/mL
  Change in log steps 6 d: ≤-1.2 log steps
  cfu/mL 6 d: <100 cfu/mL
[2]
  cfu/mL 0 h: 1 600 cfu/mL
  Change in log steps 24 h: ≤-1.2 log steps
  cfu/mL 24 h: <100 cfu/mL
  Change in log steps 48 h: ≤-1.2 log steps
  cfu/mL 48 h: <100 cfu/mL
[3]
  miscibility of propofol with the semifluorinated alkane: fully miscible
[4]
  cfu/mL 0 h: 1 600 cfu/mL
  Change in log steps 24 h: ≤-1.2 log steps
  cfu/mL 24 h: <100 cfu/mL
  Change in log steps 48 h: ≤-1.2 log steps
  cfu/mL 48 h: <100 cfu/mL
[5]
  cfu/mL 0 h: 2 900 cfu/mL
  Change in log steps 24 h: ≤-1.4 log steps
  cfu/mL 24 h: <100 cfu/mL
  Change in log steps 48 h: ≤-1.4 log steps
  cfu/mL 48 h: <100 cfu/mL
[6]
  cfu/mL 0 h: 1 500 cfu/mL
  Change in log steps 24 h: ≤-1.2 log steps
  cfu/mL 24 h: <100 cfu/mL
  Change in log steps 48 h: ≤-1.1 log steps
  cfu/mL 48 h: <100 cfu/mL

## CCCCCCC(F)(F)C(F)(F)C(F)(F)C(F)(F)F [Example F4H6]
[3]
  miscibility of propofol with the semifluorinated alkane: fully miscible

## CCCCCCCCC(F)(F)C(F)(F)C(F)(F)C(F)(F)C(F)(F)C(F)(F)F [Example F6H8]
[1]
  cfu/mL 0 h: 1 500 cfu/mL
  Change in log steps 24 h: ≤-1.2 log steps
  cfu/mL 24 h: <100 cfu/mL
  Change in log steps 48 h: ≤-1.2 log steps
  cfu/mL 48 h: <100 cfu/mL
  Change in log steps 6 d: ≤-1.2 log steps
  cfu/mL 6 d: <100 cfu/mL
[2]
  cfu/mL 0 h: 1 600 cfu/mL
  Change in log steps 24 h: ≤-1.2 log steps
  cfu/mL 24 h: <100 cfu/mL
  Change in log steps 48 h: ≤-1.2 log steps
  cfu/mL 48 h: <100 cfu/mL
[3]
  miscibility of propofol with the semifluorinated alkane: fully miscible
[4]
  cfu/mL 0 h: 1 600 cfu/mL
  Change in log steps 24 h: ≤-1.2 log steps
  cfu/mL 24 h: <100 cfu/mL
  Change in log steps 48 h: ≤-1.2 log steps
  cfu/mL 48 h: <100 cfu/mL
[5]
  cfu/mL 0 h: 2 900 cfu/mL
  Change in log steps 24 h: ≤-1.4 log steps
  cfu/mL 24 h: <100 cfu/mL
  Change in log steps 48 h: ≤-1.4 log steps
  cfu/mL 48 h: <100 cfu/mL
[6]
  cfu/mL 0 h: 1 500 cfu/mL
  Change in log steps 24 h: ≤-1.2 log steps
  cfu/mL 24 h: <100 cfu/mL
  Change in log steps 48 h: ≤-1.1 log steps
  cfu/mL 48 h: <100 cfu/mL

## CC(C)c1cccc(C(C)C)c1O [propofol, 2,6-diisopropylphenol]
[7]
  pKa: 11

From patent publication US20250345276A1, “O/W-EMULSIONS COMPRISING SEMIFLUORINATED ALKANES” (NOVALIQ GMBH, priority 2011, published 2025)
